Laboratory results: publication PMC6095874, “Discovery of cationic nonribosomal peptides as Gram-negative antibiotics through global genome mining” (Nature Communications, 2018)
Values after ≈ are worked out from the molar mass of the structure shown. Read-outs that look alike come from different tables or passages of the source. Where a SMILES comes first, the peptide text is derived from it. Bridges are numbered along the chain shown (N, C = ends). [ ]: non-standard residue; d: D form. The star is where a group is joined. ξ: configuration not given here. Hexanoyl(4ξ-Me) = CCC(C)CCC(=O)*; dOrn = NCCC[C@@H](N)C(=O)O; Orn = NCCC[C@H](N)C(=O)O

Tests used:
[1] = test system: Pseudomonas aeruginosa PAO1; assay type: cell-based; conditions: Supplementary Table 1; Pa = Pseudomonas aeruginosa PAO1
Experimental: (§1) MIC was determined by broth microdilution according to CLSI guidelines. The test medium for most species was Mueller–Hinton broth (MHB). Bacteria were grown overnight to early stationary phase and adjusted in MHB to 5.0 × 10^5 c.f.u. mL^−1 in the wells of 96-well microtiter plates (Falcon® 96-Well Flat-Bottom Microplate, Tissue Culture-Treated), mixed with varying concentrations of test compounds and incubated at 37 °C for 24 h. Cell growth was evaluated by measuring the optical density at 595 nm (Thermo Scientific Multiskan FC multiplate photometer) (Waltham, MA, USA), and the MIC was defined as the lowest compound concentration at which no bacterial growth was observed. MHBs containing 10% fetal bovine serum (Gibco), 21 mM MgCl, or 1.0 mg mL^−1 LPS (lipopolysaccharides from E. coli O55:B5, Sigma-Aldrich) was used to test their inhibitory effects.

[2] = test system: Staphylococcus aureus (MRSA); assay type: cell-based; conditions: 24 h
Experimental: as §1

Gram-negative bacteria = assay type: cell-based
Experimental: as §1

Saccharomyces cerevisiae = assay type: cell-based; conditions: 24 h
[3] = test system: Escherichia coli ATCC 25922; assay: microbe, parasite or virus in culture; assay type: cell-based; conditions: Supplementary Table 1; Ec = Escherichia coli ATCC 25922
Experimental: as §1

Human HeLa cells = conditions: concentrations up to 128 μg mL^−1, 48 h, 37 °C, MTT, absorbance 570 nm
Experimental: Human HeLa cells were used in the assay. Ninety μL of 1 × 10^5 mL^−1 cells were placed into the wells of 96-microwell plates. After 12 h, 10 μL of a medium containing test compounds at various concentrations were added to the cells which were then incubated at 37 °C for 48 h. Afterward, the supernatant was removed and 20 μL of MTT (3-(4,5-Dimethylthiazol-2-yl)-2,5-Diphenyltetrazolium Bromide) (2.5 mg mL^−1) in PBS were added to each well. After incubation at 37 °C for 3 h, 80 μL of dimethyl sulfoxide (DMSO) were added to each well and incubated for an additional 15 min. The absorbance was then measured at 570 nm with a Thermo Scientific Multiskan FC multiplate photometer.

E. coli TOP10 cells [4] = assay: Time-kill assay; assay type: cell-based, Escherichia coli
Experimental: An overnight culture of E. coli TOP10 cells was diluted 1:10,000 in MHB and incubated at 37 °C with agitation at 180 rpm for 2 h (early exponential). The bacteria were then challenged with brevicidine (20 μg mL^−1), laterocidine (20 μg mL^−1), or polymyxin B (10 μg mL^−1) at ten times the MIC at room temperature without shaking. An untreated sample of cells was used as a negative control. At intervals, 10 μL aliquots were removed, centrifuged at 10,000 × g for 1 min and resuspended in 1.0 mL of sterile PBS. Tenfold serially diluted suspensions were plated on MHB agar plates and incubated at 37 °C overnight. Colonies were counted and the number of c.f.u. per mL was calculated. For analysis of lysis, 300 μL of culture (OD600 = 1.0) were treated with antibiotics at ten times the MIC for 24 h. Experiments were performed in triplicate.

E. cloacae NRRL-B-425 = assay type: cell-based, Enterobacter cloacae; conditions: NRRL-B-425, 24 h
Experimental: as §1

E. coli ATCC 25922 = conditions: 10^8 c.f.u. plated on Mueller–Hinton agar at four times the MIC, 48 h, 37 °C
Experimental: E. coli ATCC 25922 was inoculated into MHB overnight at 37 °C with continuous shaking. Cells were diluted 10,000 times in MHB to about 1 × 10^6 c.f.u. mL^−1. Ten µL aliquots were drawn to a 96-well plate containing 90 µL of serially diluted brevicidine, laterocidine, and ciprofloxacin, at final concentrations of 0.5×, 1×, 1.5×, 2×, and 4× MIC. […] Plates with bacteria were incubated at 37 °C without shaking. […] This process was repeated for 30 days, and the final MIC was confirmed by the same antibacterial assay as the one described above. The experiment was performed in quadruplicate, and on each day, the sample that developed the highest resistance was measured to plot the curve. For single-step resistance, E. coli ATCC 25922 cells at 10^8 c.f.u. were plated onto Mueller–Hinton agar containing 4× MIC of brevicidine.

Acinetobacter baumannii = assay: MIC by broth microdilution; assay type: cell-based; conditions: Supplementary Table 1
Experimental: as §1

[5] = test system: Klebsiella pneumoniae NRRL-B-408; assay: MIC by broth microdilution; assay type: cell-based; conditions: Supplementary Table 1; Kp = Klebsiella pneumoniae NRRL-B-408
Experimental: as §1

[6] = test system: Enterobacter cloacae NRRL-B-413; assay: MIC by broth microdilution; assay type: cell-based; conditions: Supplementary Table 1; En = Enterobacter cloacae NRRL-B-413
Experimental: as §1

Bacillus subtilis 168 = assay: MIC by broth microdilution; assay type: cell-based; conditions: Supplementary Table 1; Bs = B. subtilis 168
Experimental: as §1

E. coli TOP10 cells [7] = assay: Bacterial growth kinetics; assay type: cell-based, Escherichia coli; conditions: OD600 of cells exposed to antibiotics (Fig. 4: two times the MIC)
Experimental: A single fresh colony of E. coli TOP10 cells was inoculated into MHB (5 mL) and grown with shaking at 225 rpm overnight. The bacteria were diluted to 1 × 10^5 c.f.u. mL^−1 in fresh MHB, grown […] to early log-phase (OD600 = 0.15) and treated with the antibiotics of interest in the wells of a 96-well plate. Final antibiotic concentrations varied from one to eight times the MIC. The plate was then incubated at 30 °C overnight, with OD600 measurements taken every 30 s.

`CCC(C)CCC(=O)N[C@H](CC(N)=O)C(=O)N[C@H](Cc1ccc(O)cc1)C(=O)N[C@H](Cc1c[nH]c2ccccc12)C(=O)N[C@H](CCCN)C(=O)N[C@@H](CCCN)C(=O)NCC(=O)N[C@H](CCCN)C(=O)N[C@@H](Cc1c[nH]c2ccccc12)C(=O)N[C@@H]1C(=O)N[C@@H]([C@@H](C)CC)C(=O)NCC(=O)N[C@@H](CO)C(=O)O[C@@H]1C` (some centres unmarked) [Compound 1, brevicidine] ({Hexanoyl(4ξ-Me)}-[dN][dY][dW][dOrn][Orn]G[dOrn]WTIGS; ester 9-C) was tested, and the “MIC, Pa” value [1] was 1 µg/mL (≈ 0.658 µM), the MIC [2] was greater than 64 µg/mL and the “MIC values against Gram-negative bacteria” value (Gram-negative bacteria; 24 h) was 0.66 to 10.5 µM. For the same compound, the “MIC values against Gram-negative bacteria” value (Gram-negative bacteria; range over Gram-negative strains incl. P. aeruginosa and colistin-resistant E. coli) was 1 to 16 µg/mL, the MIC (Saccharomyces cerevisiae) was greater than 64 µg/mL and the “MIC, Ec” value [3] was 2 µg/mL (≈ 1.32 µM). The “toxicity against the human cell line HeLa” value (Human HeLa cells) was “nor showed significant toxicity”, the “bactericidal action against E. coli” value (E. coli TOP10 cells [4]; as revealed by growth kinetics, time-kill assay and lysis assay) was “bactericidal” and the “cell viability in time-kill assay” value (E. coli TOP10 cells [4]; ten times the MIC, early exponential cells, room temperature, c.f.u. counts, triplicate) was “significant reduction after 30 min”. For the same compound, the MIC (E. cloacae NRRL-B-425) was 2 µg/mL (≈ 1.32 µM), the single-step resistance (E. coli ATCC 25922) was “did not develop resistance” and the single-step resistance (E. coli ATCC 25922; listed as brevicidine) was “no resistant colonies were detected”. For the same compound, the “MIC, Ab” value (Acinetobacter baumannii) was 16 µg/mL (≈ 10.5 µM), the “MIC, Kp” value [5] was 2 µg/mL (≈ 1.32 µM) and the “MIC, En” value [6] was 2 µg/mL (≈ 1.32 µM). For the same compound, the “MIC, Bs” value (Bacillus subtilis 168) was 32 µg/mL (≈ 21.1 µM) and the “growth kinetics of E. coli cells exposed to compound” value (E. coli TOP10 cells [7]) was “grew at a reduced rate for 30 min”.
